≈ marks a conversion by molar mass, not a printed value. Where “and” joins values, the source holds several entries; their conditions need not be identical. Equal entries are not always repeated. Where two headings read alike, the source gives them in different places.
How the values were obtained:
M. tuberculosis H37Ra = experiment: microbe, parasite or virus in culture; type: cell-based, Mycobacterium tuberculosis
M. tuberculosis H37Rv = experiment: microbe, parasite or virus in culture; type: cell-based, Mycobacterium tuberculosis; settings: for SI (CC50/MIC): ratio of CC50 for L929 fibroblasts to MIC for strain H37Rv
in vitro = type: cell-based, murine; settings: mouse
Description: (§1) A549 human pulmonary epithelial cells (KCLB 10185), human embryonic kidney (HEK) 293 cells (KCLB 21573), human THP-1 leukemia cells (KCLB 40202), human neuroblastoma SH-SY5Y cells (KCLB 22266), Murine Raw 264.7 macrophages (KCLB 40071), and L929 murine fibroblasts (KCLB 10001) were purchased from the KCLB (Seoul, Korea). Cytotoxicity testing was performed using the MTT assay and the WST-1 cell viability assay as previously described.

[1] = test system: Murine Raw 264.7 macrophages; experiment: in vitro; type: cell-based; settings: RAW, MTT assay (Table S1)
Description: as §1

L929 murine fibroblasts = experiment: in vitro; type: cell-based; settings: L929, MTT assay (Table S1)
Description: as §1

[2] = type: cell-based; settings: positive control, absence of S9 mix
M. chitae = experiment: microbe, parasite or virus in culture; type: cell-based, Mycobacterium chitae; settings: Mycolicibacterium chitae
M. phocaicum = experiment: microbe, parasite or virus in culture; type: cell-based, Mycobacterium phocaicum; settings: Mycolicibacterium phocaicum
M. fortuitum = experiment: microbe, parasite or virus in culture; type: cell-based, Mycobacterium fortuitum; settings: Mycolicibacterium fortuitum
M. kansasii = experiment: microbe, parasite or virus in culture; type: cell-based; settings: Mycobacterium kansasii
M. smegmatis = experiment: microbe, parasite or virus in culture; type: cell-based, Mycobacterium smegmatis; settings: Mycolicibacterium smegmatis
M. marinum = experiment: microbe, parasite or virus in culture; type: cell-based; settings: Mycobacterium marinum
M. kyorinense = experiment: microbe, parasite or virus in culture; type: cell-based; settings: Mycobacterium kyorinense
M. heraklionease = experiment: microbe, parasite or virus in culture; type: cell-based; settings: Mycobacterium
M. gordonae = experiment: microbe, parasite or virus in culture; type: cell-based; settings: Mycobacterium gordonae
M. xenopi = experiment: microbe, parasite or virus in culture; type: cell-based; settings: Mycobacterium xenopi
M. arupense = experiment: microbe, parasite or virus in culture; type: cell-based, Mycobacterium arupense; settings: Mycolicibacter arupensis
M. avium = experiment: microbe, parasite or virus in culture; type: cell-based; settings: Mycobacterium avium
M. bolletii = experiment: microbe, parasite or virus in culture; type: cell-based, Mycobacterium bolletii; settings: Mycobacteroides abscessus
M. massiliense = experiment: microbe, parasite or virus in culture; type: cell-based, Mycobacterium massiliense; settings: Mycobacteroides abscessus
M. marseiliense = experiment: microbe, parasite or virus in culture; type: cell-based; settings: Mycobacterium
M. goodie = experiment: microbe, parasite or virus in culture; type: cell-based; settings: Mycobacterium
M. gilvum = experiment: microbe, parasite or virus in culture; type: cell-based, Mycobacterium gilvum; settings: Mycolicibacterium gilvum
M. colombiense = experiment: microbe, parasite or virus in culture; type: cell-based; settings: Mycobacterium colombiense
M. szulgai = experiment: microbe, parasite or virus in culture; type: cell-based; settings: Mycobacterium szulgai
M. peregrinum = experiment: microbe, parasite or virus in culture; type: cell-based, Mycobacterium peregrinum; settings: Mycolicibacterium peregrinum
M. intracellulare = experiment: microbe, parasite or virus in culture; type: cell-based; settings: Mycobacterium intracellulare
M. conceptionense = experiment: microbe, parasite or virus in culture; type: cell-based, Mycobacterium conceptionense; settings: Mycolicibacterium senegalense
M. phlei = experiment: microbe, parasite or virus in culture; type: cell-based, Mycobacterium phlei; settings: Mycolicibacterium phlei
M. aubagnense = experiment: microbe, parasite or virus in culture; type: cell-based, Mycobacterium aubagnense; settings: Mycolicibacterium aubagnense
[3] = test system: clinically isolated MDR, XDR, and TDR M. tuberculosis strains; experiment: microbe, parasite or virus in culture; type: cell-based; settings: Mycobacterium tuberculosis
M. abscessus = experiment: microbe, parasite or virus in culture; type: cell-based, Mycobacterium abscessus; settings: Mycobacteroides abscessus
M. neoaurum = experiment: microbe, parasite or virus in culture; type: cell-based, Mycobacterium neoaurum; settings: Mycolicibacterium neoaurum
M. bovis = experiment: microbe, parasite or virus in culture; type: cell-based; settings: Mycobacterium tuberculosis variant bovis
[4] = Mycobacterium tuberculosis, H37RA
[5] = Mycobacterium tuberculosis, H37RV, read-out: MIC

## CCOc1ccc2cc(C(=O)OC)c3cc(OC)c(OC)cc3c2c1 [DPGA7]
M. tuberculosis H37Ra; [4]
  MIC: > 100 µg/mL
M. tuberculosis H37Rv; [5]
  MIC: > 100 µg/mL
In vitro; L929, MTT assay (Table S1)
  CC50: > 100 µg/mL
In vitro; RAW, MTT assay (Table S1)
  CC50: > 100 µg/mL

## COc1ccc(/C(=C\c2ccc(OCc3ccccc3)cc2)C(=O)O)cc1OC [DPGA2]
M. tuberculosis H37Ra
  MIC: 100 µg/mL (≈ 256 µM)
M. tuberculosis H37Rv
  MIC: >100 µg/mL
[1]
  CC50: >100 µg/mL
L929 murine fibroblasts
  CC50: >100 µg/mL

## [N-]=[N+]=[N-].[Na+] [SA]
[2]; TA100, 1.5 μg/plate
  Individual revertant colony counts: 734 colonies per plate and 732 colonies per plate
  Mean revertant colonies: 733 colonies per plate
[2]; TA1535, 1.5 μg/plate
  Individual revertant colony counts: 588 colonies per plate and 535 colonies per plate
  Mean revertant colonies: 562 colonies per plate

## COC(=O)c1cc2ccc(OCC(C)C)cc2c2cc(OC)c(OC)cc12 [DPGA5]
M. tuberculosis H37Ra; [4]
  MIC: > 100 µg/mL
M. tuberculosis H37Rv; [5]
  MIC: > 100 µg/mL
M. tuberculosis H37Rv
  SI (CC50/MIC): <0.4
In vitro; L929, MTT assay (Table S1)
  CC50: 40.3 µg/mL (≈ 109 µM)
In vitro; RAW, MTT assay (Table S1)
  CC50: > 100 µg/mL

## Nc1c2ccccc2nc2ccccc12 [9-AA]
[2]; TA1537, 80.0 μg/plate
  Individual revertant colony counts: 539 colonies per plate and 571 colonies per plate
  Mean revertant colonies: 555 colonies per plate

## NC(=O)c1cnccn1 [PZA, pyrazinamide]
M. chitae
  MIC: > 100 µg/mL
M. phocaicum
  MIC: > 100 µg/mL
M. fortuitum
  MIC: > 100 µg/mL
M. kansasii
  MIC: > 100 µg/mL
M. smegmatis
  MIC: > 100 µg/mL
M. marinum
  MIC: > 100 µg/mL
M. kyorinense
  MIC: > 100 µg/mL
M. tuberculosis H37Rv; [5]
  MIC: > 100 µg/mL
M. heraklionease
  MIC: > 100 µg/mL
M. gordonae
  MIC: > 100 µg/mL
M. xenopi
  MIC: > 100 µg/mL
M. arupense
  MIC: > 100 µg/mL
M. avium
  MIC: > 100 µg/mL
M. bolletii
  MIC: > 100 µg/mL
M. massiliense
  MIC: > 100 µg/mL
M. marseiliense
  MIC: > 100 µg/mL
M. goodie
  MIC: > 100 µg/mL
M. gilvum
  MIC: > 100 µg/mL
M. colombiense
  MIC: > 100 µg/mL
M. szulgai
  MIC: > 100 µg/mL
M. peregrinum
  MIC: > 100 µg/mL
M. intracellulare
  MIC: > 100 µg/mL
M. conceptionense
  MIC: > 100 µg/mL
M. phlei
  MIC: > 100 µg/mL
M. aubagnense
  MIC: > 100 µg/mL
[3]
  MIC: > 100 µg/mL
[3]; TDR-1
  MIC: > 100 µg/mL
[3]; TDR-2
  MIC: > 100 µg/mL
[3]; TDR-3
  MIC: > 100 µg/mL
M. abscessus
  MIC: > 100 µg/mL
M. neoaurum
  MIC: > 100 µg/mL
M. bovis
  MIC: > 100 µg/mL

## CC[C@@H](CO)NCCN[C@@H](CC)CO [EMB, ethambutol]
M. chitae
  MIC: 0.2 µg/mL (≈ 0.979 µM)
M. phocaicum
  MIC: 0.4 µg/mL (≈ 1.96 µM)
M. fortuitum
  MIC: 12.5 µg/mL (≈ 61.2 µM)
M. kansasii
  MIC: 1.6 µg/mL (≈ 7.83 µM)
M. smegmatis
  MIC: 0.8 µg/mL (≈ 3.92 µM)
M. marinum
  MIC: 3.1 µg/mL (≈ 15.2 µM)
M. kyorinense
  MIC: 50 µg/mL (≈ 245 µM)
M. tuberculosis H37Rv; [5]
  MIC: 1.6 µg/mL (≈ 7.83 µM)
M. heraklionease
  MIC: 100 µg/mL (≈ 489 µM)
M. gordonae
  MIC: > 100 µg/mL
M. xenopi
  MIC: 25 µg/mL (≈ 122 µM)
M. arupense
  MIC: 0.4 µg/mL (≈ 1.96 µM)
M. avium
  MIC: 50 µg/mL (≈ 245 µM)
M. bolletii
  MIC: > 100 µg/mL
M. massiliense
  MIC: 100 µg/mL (≈ 489 µM)
M. marseiliense
  MIC: 100 µg/mL (≈ 489 µM)
M. goodie
  MIC: 0.8 µg/mL (≈ 3.92 µM)
M. gilvum
  MIC: 12.5 µg/mL (≈ 61.2 µM)
M. colombiense
  MIC: 6.3 µg/mL (≈ 30.8 µM)
M. szulgai
  MIC: 3.1 µg/mL (≈ 15.2 µM)
M. peregrinum
  MIC: 3.1 µg/mL (≈ 15.2 µM)
M. intracellulare
  MIC: 3.1 µg/mL (≈ 15.2 µM)
M. conceptionense
  MIC: 50 µg/mL (≈ 245 µM)
M. phlei
  MIC: 1.6 µg/mL (≈ 7.83 µM)
M. aubagnense
  MIC: 50 µg/mL (≈ 245 µM)
[3]; TDR-1
  MIC: 6.3 µg/mL (≈ 30.8 µM)
[3]; TDR-2
  MIC: 6.3 µg/mL (≈ 30.8 µM)
[3]; TDR-3
  MIC: 6.3 µg/mL (≈ 30.8 µM)
M. abscessus
  MIC: 100 µg/mL (≈ 489 µM)
M. neoaurum
  MIC: 6.3 µg/mL (≈ 30.8 µM)
M. bovis
  MIC: 1.6 µg/mL (≈ 7.83 µM)

## CCCCOc1ccc2cc(CO)c3cc(OC)c(OC)cc3c2c1 [DPGA11]
M. tuberculosis H37Ra; [4]
  MIC: > 100 µg/mL
M. tuberculosis H37Rv; [5]
  MIC: > 100 µg/mL
M. tuberculosis H37Rv
  SI (CC50/MIC): <0.7
In vitro; L929, MTT assay (Table S1)
  CC50: 73.7 µg/mL (≈ 216 µM)
In vitro; RAW, MTT assay (Table S1)
  CC50: > 100 µg/mL

Source: publication PMC9154192 (PLoS Biology, 2022)
